These results are taken from patent US20040038861A1, “Methods and compositions for normalizing lipid levels in mammalian tissues” (priority 2001, published 2004).

Assay [1] concerns the target T1, murine ramp 1/C1ins− receptor (Mus musculus, UniProt Q60755+Q9WTJ5).
T1 construct: expressed in transfected cells; host or cells: L6 myoblasts (ATCC), transient co-transfection of pcDNA3.1 plasmids
T1 sequence (Q60755 42-496 isoform Q60755-2 limits assumed): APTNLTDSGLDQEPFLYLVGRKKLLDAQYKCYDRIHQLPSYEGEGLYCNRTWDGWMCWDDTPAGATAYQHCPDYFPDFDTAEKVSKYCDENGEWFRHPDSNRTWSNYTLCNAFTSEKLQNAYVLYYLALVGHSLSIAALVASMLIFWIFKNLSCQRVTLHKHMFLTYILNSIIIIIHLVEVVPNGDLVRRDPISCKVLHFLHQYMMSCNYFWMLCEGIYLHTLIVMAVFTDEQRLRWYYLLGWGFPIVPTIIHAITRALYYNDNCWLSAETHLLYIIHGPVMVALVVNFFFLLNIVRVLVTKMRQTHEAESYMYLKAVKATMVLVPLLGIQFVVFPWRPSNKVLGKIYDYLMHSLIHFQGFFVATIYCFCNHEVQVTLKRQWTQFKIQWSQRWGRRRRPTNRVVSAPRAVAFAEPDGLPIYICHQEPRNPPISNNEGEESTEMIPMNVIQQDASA
T1 sequence (Q9WTJ5 27-148 partner): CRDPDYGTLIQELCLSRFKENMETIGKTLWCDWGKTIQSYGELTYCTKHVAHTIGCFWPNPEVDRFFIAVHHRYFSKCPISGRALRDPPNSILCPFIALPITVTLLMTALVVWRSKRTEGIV
Description: Radioligand binding and displacement of [3H]amylin in L6 myoblasts co-transfected with murine ramp 1 and C1ins−. As to conditions: 10 nM radioligand, FIG. 8D. (Displacement assays read how much labelled ligand stays bound in the presence of the test substance.)
Description: Transfection of L6 myoblasts and cos-7 cells, and analysis of radioligand binding. L6 myoblasts and cos-7 cells were obtained from ATCC. Both cell lines were cultered in Dulbecco's modified Eagle's medium (DMEM; Gibco/BRL, high glucose) supplemented with 10% fetal calf serum (Gibco/BRL, Gaithersburg, Md.), L-glutamine (2 mM), penicillin (100 U/ml; Sigma), streptomycin (100 mg/ml; Sigma), saline (0.85%), under 5% CO2/95% air at 37° C. The day before transfection, cells were trypsinised and seeded into six-well plates at a density of 2.9×10^5 cells/well in the same medium. For transfection, cells were incubated with a mixture comprising 1 μg each of Qiagen-purified (Qiagen, Valencia, Calif.) plasmids containing C1ins− with either ramp 1 or ramp 3, and Fugene reagent (6 μl; Boehringer Mannheim) in Opti-Mem I medium (Gibco/BRL). The complex was added with serum to cells, which were incubated for a further 48 h.
For binding experiments, radioligand (either alone or together with stated final concentrations of non-radiolabeled ligands) was dissolved in DMEM containing 0.1% BSA (binding buffer) for 1 h before binding experiments were performed. […] Cells were washed twice with this buffer, then incubated with 1 ml of the same plus radioligand for 4 h at room temperature (21° C.).

Assay [2] concerns the target CGRP-1 binding sites in rat skeletal muscle membrane. As to conditions: rat skeletal muscle membrane preparations, cited from earlier work.
The test system of assay [3] is Wistar rats. Kind of assay: Tissue free fatty acid and triglyceride content following infusion in normal-fed rats. It counts as in vivo, rat. How it is done:
(§1) Surgery. Experiments were performed on male Wistar rats. Animals were randomly assigned to experimental groups as outlined below. Induction and maintenance of surgical anesthesia was by 3-5% halothane and 2L oxygen. An initial blood sample was taken from a tail artery for measurement of baseline levels of blood glucose and lactate, electrolyte, acid base and oxygen status and serum levels of free fatty acids, triglyceride and cholesterol. Immediately following this, the trachea was cannulated and the animal ventilated at 60-70 breaths.min-1 with air supplemented with O2. The respiratory rate and end-tidal pressure (10-15 cmH2O) were adjusted to maintain end-tidal CO2 at 35-40 mmHg. Body temperature was maintained at 37° C. throughout surgery and the experiment by a heating pad. The carotid artery and jugular vein were cannulated with a solid-state blood pressure transducer and a saline filled PE 50 catheter respectively. For the antagonist infusion studies, surgery was similar to above with the alteration being that both the carotid artery and jugular vein were cannulated with saline filled PE 50 catheters. Fluids (saline or hormone dissolved in saline) were delivered to the jugular vein with a Y-connector to join the two lines. The carotid artery line was connected to a blood pressure transducer. Blood samples were taken from this line at time zero (baseline reading), 30 minutes and every 20 minutes until the end of the experiment at 90 minutes.
(§2) Infusion. […] Blood glucose measurements were taken from tail capillaries at 5-minute intervals throughout the duration of the experiment. At the end of the infusion a terminal blood sample was taken by cardiac puncture and analysed as per the basal sample and also for various metabolites and hormones. Serum and plasma samples were stored at −80° C. until future analysis. Animals were killed by cervical dislocation and harvested tissues (brain, liver, kidney, soleus muscle, extensor digitorum longus muscle, left ventricle, retroperitoneal and epididymal fat pads) snap frozen in liquid N2 and stored at −80° C. until future analysis. For the antagonist studies, the protocols was the same as above with the following changes: Infusion was a combination of antagonist, CGRP or saline.

The test system of assay [4] is Wistar rats. Kind of assay: Serum hormones and blood metabolites following acute CGRP infusion in anaesthetised normal-fed rats. It counts as in vivo, rat. As to conditions: end vs commencement of infusion. How it is done:
as §1
as §2, with “analysis.” for “analysis. For the antagonist studies, the protocols was the same as above with the following changes: Infusion was a combination of antagonist, CGRP or saline.”

Read-outs that look alike come from different tables or passages of the source.

As for Rat amylin, in assay [1], the “specific binding of [3H]radioligand to L6 myoblasts co-transfected with ramp 1 and C1ins−” value was “significant increases in specific binding”.
What is called Kd is the free concentration of one partner at which half of the binding sites on the other are occupied at equilibrium, for simple one-to-one binding. Regarding rat CGRP-1, the dissociation constant Kd is around 0.037 nM in assay [2] (read-out: Kd, high affinity binding site) and around 6 nM in assay [2] (read-out: Kd, second binding site). In addition, the “FFA content, Heart” value in the assay on Wistar rats [3] (CGRP 100 pmol/kg/min 1 h, CGRP-(8-37) 10 nmol/kg/min 90 minutes, control 0.8 ± 0.2) is 0.9 ± 0.1 µmol/g. Also, the “FFA content, Liver” value with Wistar rats [3] (same infusions, control 0.1 ± 0.01) came out at 0.7 ± 0.1 µmol/g. Moreover, the “FFA content, Soleus Muscle” value in the assay with Wistar rats [3] (same infusions, control 0.2 ± 0.02) is 0.6 ± 0.07 µmol/g. In addition, the “FFA content, Kidney” value in the assay on Wistar rats [3] (same infusions, control 0.8 ± 0.1) amounted to 0.9 ± 0.2 µmol/g. Further, the “FFA content, Epi Adipose” value with Wistar rats [3] (same infusions, control 2.1 ± 0.5) amounted to 2.7 ± 0.7 µmol/g. The “triglyceride content, Kidney” value with Wistar rats [3] (same infusions, control 2.8 ± 0.5) was determined as 2.4 ± 0.4 µmol/g. In addition, the “triglyceride content, Heart” value in the assay with Wistar rats [3] (same infusions, control 2.9 ± 0.4) worked out at 2.6 ± 0.4 µmol/g. Further, in the assay on Wistar rats [3] (same infusions, control 3.7 ± 0.4), the “triglyceride content, Soleus Muscle” value was found to be 1.5 ± 0.2 µmol/g. For the same substance, the “triglyceride content, Liver” value in the assay with Wistar rats [3] (same infusions, control 4.3 ± 0.3) came out at 2.2 ± 0.5 µmol/g. For the same substance, the “triglyceride content, Epi Adipose” value in the assay on Wistar rats [3] (same infusions, control 5.1 ± 1.2) is 5.0 ± 0.9 µmol/g. The “Change in [serum] Triglyceride” value with Wistar rats [4] (CGRP 60 min, CGRP-(8-37) 90 min, control 0.2) was -0.7 mmol/L. Also, in the assay with Wistar rats [4] (control −0.1), the “Change in [serum] FFA” value worked out at 0.4 mmol/L. The “Change in Lactate” value in the assay with Wistar rats [4] (heparinised whole blood, control 0.3) stood at 1.7 mmol/L.
